Measurements: publication PMC5934274 (Journal of medicinal chemistry, 2016)
Where two headings read alike, the source gives them in different places.

Experiments:
PARP1 [1] = assay: In vitro ADP-ribosylation assay, PARP1; format: biochemical, human; details: selectivity toward PARP1 and -2 over other PARP family members
PARP1 [2] = details: read-out: KM NAD+ (literature), cited from earlier work
PARP14 = PARP14 (Homo sapiens, UniProt Q460N5); assay: In vitro ADP-ribosylation assay, PARP14; format: biochemical; details: read-out: KM NAD+; PARP14 ART
Chain of PARP14 (Q460N5 whole entry): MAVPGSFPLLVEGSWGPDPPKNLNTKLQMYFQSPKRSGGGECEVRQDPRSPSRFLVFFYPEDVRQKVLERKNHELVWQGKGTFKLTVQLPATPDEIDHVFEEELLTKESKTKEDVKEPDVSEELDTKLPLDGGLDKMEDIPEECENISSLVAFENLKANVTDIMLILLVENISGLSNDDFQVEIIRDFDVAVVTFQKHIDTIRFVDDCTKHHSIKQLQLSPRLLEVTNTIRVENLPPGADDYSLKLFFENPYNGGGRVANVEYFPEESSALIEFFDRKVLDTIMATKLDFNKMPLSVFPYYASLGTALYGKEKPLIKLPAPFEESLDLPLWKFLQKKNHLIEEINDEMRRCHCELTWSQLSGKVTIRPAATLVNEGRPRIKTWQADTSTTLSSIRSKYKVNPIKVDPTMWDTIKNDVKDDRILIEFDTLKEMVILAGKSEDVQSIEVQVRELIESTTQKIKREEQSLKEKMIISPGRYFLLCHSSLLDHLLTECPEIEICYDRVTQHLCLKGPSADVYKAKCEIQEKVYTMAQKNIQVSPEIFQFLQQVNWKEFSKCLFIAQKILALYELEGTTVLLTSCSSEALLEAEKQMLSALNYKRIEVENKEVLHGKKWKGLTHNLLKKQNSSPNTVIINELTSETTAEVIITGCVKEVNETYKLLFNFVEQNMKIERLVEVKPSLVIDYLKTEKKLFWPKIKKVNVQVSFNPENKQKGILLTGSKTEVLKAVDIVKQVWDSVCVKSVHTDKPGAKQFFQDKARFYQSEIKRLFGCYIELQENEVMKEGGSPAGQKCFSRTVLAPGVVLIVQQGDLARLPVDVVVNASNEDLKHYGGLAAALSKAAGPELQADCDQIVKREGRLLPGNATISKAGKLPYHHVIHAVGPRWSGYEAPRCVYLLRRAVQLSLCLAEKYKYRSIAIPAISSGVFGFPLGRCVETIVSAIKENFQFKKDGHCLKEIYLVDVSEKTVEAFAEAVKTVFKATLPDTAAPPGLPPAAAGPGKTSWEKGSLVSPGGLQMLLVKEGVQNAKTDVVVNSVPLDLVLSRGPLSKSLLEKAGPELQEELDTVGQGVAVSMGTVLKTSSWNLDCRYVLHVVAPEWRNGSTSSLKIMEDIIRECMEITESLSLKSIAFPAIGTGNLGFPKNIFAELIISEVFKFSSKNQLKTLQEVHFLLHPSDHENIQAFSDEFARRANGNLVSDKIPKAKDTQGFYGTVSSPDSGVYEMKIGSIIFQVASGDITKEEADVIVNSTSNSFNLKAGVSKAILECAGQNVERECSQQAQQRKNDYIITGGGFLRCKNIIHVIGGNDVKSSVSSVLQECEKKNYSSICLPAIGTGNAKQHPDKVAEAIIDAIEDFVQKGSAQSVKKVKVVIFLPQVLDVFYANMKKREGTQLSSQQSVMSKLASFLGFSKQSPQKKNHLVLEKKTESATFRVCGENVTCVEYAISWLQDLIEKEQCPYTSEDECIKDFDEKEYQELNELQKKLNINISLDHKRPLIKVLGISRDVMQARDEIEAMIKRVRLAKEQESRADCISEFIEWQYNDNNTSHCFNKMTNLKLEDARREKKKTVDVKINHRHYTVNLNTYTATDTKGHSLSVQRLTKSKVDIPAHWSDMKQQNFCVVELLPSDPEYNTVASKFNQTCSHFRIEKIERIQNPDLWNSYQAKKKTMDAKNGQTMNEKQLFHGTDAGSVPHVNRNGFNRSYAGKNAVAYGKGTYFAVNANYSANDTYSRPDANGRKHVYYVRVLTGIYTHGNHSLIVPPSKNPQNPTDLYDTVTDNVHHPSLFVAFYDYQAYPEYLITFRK

PARP2 = details: read-out: KM NAD+ (literature); PARP2 FL row; cited from earlier work
PARP16 = molecular target: T1, PARP16 (Homo sapiens, UniProt Q8N5Y8); details: read-out: KM NAD+ (literature); PARP16 FL row; cited from earlier work
T1 sequence (Q8N5Y8 1-322): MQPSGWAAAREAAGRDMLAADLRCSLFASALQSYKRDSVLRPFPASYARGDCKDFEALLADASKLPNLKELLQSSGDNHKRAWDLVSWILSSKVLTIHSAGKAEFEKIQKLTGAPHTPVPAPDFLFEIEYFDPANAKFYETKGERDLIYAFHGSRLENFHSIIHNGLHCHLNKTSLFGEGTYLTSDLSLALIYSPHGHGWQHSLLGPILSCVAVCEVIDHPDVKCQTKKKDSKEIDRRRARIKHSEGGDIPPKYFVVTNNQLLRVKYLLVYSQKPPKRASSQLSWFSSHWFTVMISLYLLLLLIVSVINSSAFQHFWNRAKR

PARP10 = molecular target: T2, PARP10 (Homo sapiens, UniProt Q53GL7); details: read-out: KM NAD+ (literature); PARP10 FL row; cited from earlier work
T2 sequence (Q53GL7 1-1025): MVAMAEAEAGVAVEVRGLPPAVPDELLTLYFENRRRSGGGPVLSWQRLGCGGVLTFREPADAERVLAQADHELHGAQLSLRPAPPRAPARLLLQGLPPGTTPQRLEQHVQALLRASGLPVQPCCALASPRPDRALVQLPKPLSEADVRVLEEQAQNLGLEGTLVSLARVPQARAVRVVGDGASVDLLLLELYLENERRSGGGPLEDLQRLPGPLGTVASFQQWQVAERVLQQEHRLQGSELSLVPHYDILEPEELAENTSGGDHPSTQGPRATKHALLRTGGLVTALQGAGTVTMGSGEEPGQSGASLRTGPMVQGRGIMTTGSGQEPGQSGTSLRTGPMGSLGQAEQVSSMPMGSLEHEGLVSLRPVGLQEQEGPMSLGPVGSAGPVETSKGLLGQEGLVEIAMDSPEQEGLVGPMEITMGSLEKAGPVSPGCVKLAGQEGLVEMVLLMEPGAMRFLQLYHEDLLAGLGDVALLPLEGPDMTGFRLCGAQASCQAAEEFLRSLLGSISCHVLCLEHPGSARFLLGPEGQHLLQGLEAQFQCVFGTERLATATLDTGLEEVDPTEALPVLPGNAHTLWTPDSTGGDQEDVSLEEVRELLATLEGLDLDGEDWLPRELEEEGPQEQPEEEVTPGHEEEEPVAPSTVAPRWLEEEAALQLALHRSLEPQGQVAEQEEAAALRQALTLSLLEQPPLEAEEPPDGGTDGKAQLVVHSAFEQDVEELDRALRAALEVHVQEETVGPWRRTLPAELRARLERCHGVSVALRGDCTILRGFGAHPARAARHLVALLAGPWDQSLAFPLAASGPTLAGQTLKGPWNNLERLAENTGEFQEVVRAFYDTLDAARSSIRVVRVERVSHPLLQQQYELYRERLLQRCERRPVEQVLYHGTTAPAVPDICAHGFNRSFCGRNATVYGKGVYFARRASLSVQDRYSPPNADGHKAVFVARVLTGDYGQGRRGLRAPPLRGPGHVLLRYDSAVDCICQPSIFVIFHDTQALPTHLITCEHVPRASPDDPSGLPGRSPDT

IC50 values for PARP1 and -2 lower than those for other family members (PARP1 [1]) [fold]	Km (PARP14) [µM]	SMILES	Km (PARP1 [2]; PARP1 ART row) [µM]	Km (PARP1 [2]; PARP1 FL row) [µM]	Km (PARP2) [µM]	Km (PARP16) [µM]	Km (PARP10) [µM]
> 100		C[C@]1(c2nc3c(C(N)=O)cccc3[nH]2)CCCN1 [Veliparib]					
	62 ± 7	NC(=O)c1ccc[n+]([C@@H]2O[C@H](COP(=O)([O-])OP(=O)(O)OC[C@H]3O[C@@H](n4cnc5c(N)ncnc54)[C@H](O)[C@@H]3O)[C@@H](O)[C@H]2O)c1 [NAD+, nicotinamide adenine dinucleotide]	30 to 130	50	130	280	50
